Laboratory results published in patent US20240228434A1, “PRODRUGS OF KV7 CHANNEL OPENERS” (Xyzagen, Inc., priority 2021, published 2024).

What was measured:
[1] = Solvent solubility assessment by visual inspection; type: physicochemical; conditions: 0.1N Na2HPO4
Method: Compounds were weighed and placed into a 4 dram vials and solvents were added to the target concentration. Compounds were vortex and visually inspected for particulates and considered soluble if clear upon visual inspection with and without magnification. Solubility was reported as either greater than (>) or less than (<) from the prepared concentration. […] It was evaluated at 10 mg/mL in 0.1 N NaCl and was freely soluble. It was evaluate at 1 mg/mL in 0.1 N NaOH and 0.1 N Na2HPO4 and was freely soluble. In ethanol and methanol it was freely soluble at a concentration of 75 mg/mL. […] It was freely soluble at 75 mg/mL in methanol and ethanol. It was soluble at 1 mg/mL in 1N HCl.

[2] = Stability in solvents on the benchtop exposed to light, HPLC-UV 230 nm; type: physicochemical; conditions: all test conditions except 0.1N NaOH, over 4 days
Method: Compounds in solvent were left on the benchtop exposed to light for up to 7 days since it is known that Compound 1 will degrade with light within 3-7 days.
Stability was assessed by taking an aliquot from the solubility vials at each test day. A single replicate was injected for each test condition.
Samples were injected onto an HPLC system with an aqueous mobile phase and acetonitrile organic phase and compounds were separated on a C8 50×2 mm column. Wavelength 230 nm was monitored for absorption and integrated for peak area while the mass spectrometer was used to confirm mass. Samples were tested on Day 1 and on subsequent days through Day 7.

[3] = In vitro mouse plasma stability at 37° C.; type: in vitro ADME; conditions: 1000 ng/mL
Method: (§1) Plasma was collected by the biomaterial vendor and kept frozen at −20° C.
(§2) The samples were analyzed by HPLC separation and mass spectrometry detection for prodrug amount, relative to a baseline time 0 control sample. Triplicate samples were generated at each time point and the peak area response was averaged and converted to a percent of baseline control.

[4] = In vitro rat plasma stability at 37° C.; type: in vitro ADME; conditions: at 23 h
Method: as §1, §2

[5] = Pharmacokinetics of ezogabine prodrugs in rat (IV, IM, PO); conditions: rat, in vivo, po
Method: Blood was diluted by 10% with these stabilizers.
Extraction of the molecules was conducted by taking a 50 uL aliquot of plasma and adding 200 uL of acetonitrile containing 200 ng/mL tolbutamide as the internal standard. Samples were precipitated in a 96 well plate, centrifuges and an aliquot transferred to a new plate, dried down under heat and nitrogen and then reconstituted in the initial mobile phase conditions of the LC-MS/MS method. […] A standard curve was prepared from 5000 ng/mL to 1 ng/mL for each analyte. Concentration data from the bioanalytical run was analyzed by Phoenix Winnonlin version 8 for noncompartmental PK analysis, plotting of concentration time curves and tabulation of PK parameters.
150 uL of blood were collected at predesignated time points. At completion of the study animals were asphyxiated by carbon dioxide gas and exsanguinated for euthanasia.

MES induced seizures [6] = assay: SD rat MES test after IM Compound 4; type: in vivo; conditions: IM 75 mg/kg
Method: All treatments were at 0.083, 0.25, 0.5, 1, 2, 4, and 8 hours prior to the administration of MES test, where 6 seconds where 6 seconds without a seizure was considered protected.

[7] = Rat PK at equimolar dose to Ezogabine (20 mg/kg) in 0.5% methylcellulose; conditions: for Exposure of ezogabine (dose normalized AUC) compared with ezogabine itself: rats, equimolar dose to Ezogabine 20 mg/kg
Method: (§3) Blood samples were collected at the same time points over 24 hours to generate a concentration time profile. Two male rats were dosed per group. Plasma samples were analyzed by LC/MS/MS and the resulting concentration time profiles and PK parameters are provided.
as §3, §3

[8] = tested on: flicks/licks after intraplantar 5% formalin; assay: Formalin inflammatory pain model; type: in vivo, CD-1 mouse; conditions: SC 100 mg/kg in water 30 minutes before formalin; both phases (0-10 min, 15-40 min)
Method: Compound 4 was assessed in the rat formalin inflammatory model. The number of flicks/licks of a male CD-1 mouse in the acute phase 0-10 minute and the inflammatory phase from 15-40 min after intraplantar administration of 50 μL of 5% formalin was recorded. […] Data is presented over the duration of the observation periods in 2 minute bins.

[9] = Acid and organic solution stability, HPLC-UV 250 nm; conditions: 5 mg/mL; for Degradation / conversion to ezogabine in solution (summary): up to 3 weeks
Method: An HPLC-UV Vis method was developed using 0.1% Formic acid in water as mobile phase A and 0.1% Formic acid in acetonitrile as mobile Phase B. A gradient method was developed ramping from 10% A to 90% B over 8 minutes and then returning to 10% A at 8.5 minutes on a 4.6×50 mm Zorbax C-18 column. Injections of 10 uL of stability solutions were injected for analyte detection.
[…] Aliquots were collected at serial time points and then diluted to a nominal concentration of 100 ug/mL for injection to the HPLC and 250 nm monitored by the diode array detector. Data at approximately 10 days is presented.
Aliquots were collected at serial time points and then diluted to a nominal concentration of 100 ug/mL for injection to the HPLC and 250 nm monitored by the diode array detector.
(§4) It was also evaluated at 2 N HCl at 37° C. Aliquots were collected at serial time points and then diluted to a nominal concentration of 100 ug/mL for injection to the HPLC and 250 nm monitored by the diode array detector.
as §4, §4, §4

MES induced seizures [10] = assay: Maximal electroshock assay of Compound 28, IP; type: in vivo, CF-1 mice; conditions: for Animals protected from MES induced seizures: 30 minutes after administration
[11] = Drug concentration in plasma and brain after Compound 28 IP; conditions: CF-1 mice, 30 minutes
MES induced seizures [12] = assay: Mouse maximal electroshock (MES) assay of Compound 29, oral; type: in vivo, CF-1 mouse; conditions: oral 30 mg/kg; 0.25, 0.5 and 1 h
Excerpt: (§5) Each male CF-1 mouse provided one data point in the MES assay and one data point in the concentration analysis. There were 8 mice per time point.

[13] = Plasma and brain concentration after oral Compound 29; conditions: oral 30 mg/kg Compound 29, 0.25, 0.5 and 1 h
Excerpt: as §5

[14] = male jugular vein cannulated rats, dose equimolar to Ezogabine 20 mg/kg, 0.5% methylcellulose in water, 24 hours, analyte the dosed prodrug
[15] = male jugular vein cannulated rats, dose equimolar to Ezogabine 20 mg/kg, 0.5% methylcellulose in water, analyte the dosed prodrug

With `CCOC(=O)Nc1ccc(NCc2ccc(F)cc2)cc1NC(=O)[C@@H](N)CCCCN` [Compound 4] the Solubility [1] was over 1000 µg/mL, the Stability in solvent [2] was “stable” and the Plasma stability [3] was “degrades by 6 hours”. For the same molecule, the Percent remaining [4] was “below 50%”, the “Exposure of the prodrug itself in systemic circulation” value [5] was “slightly more detectable” and the “Protection from MES induced seizures” value (MES induced seizures [6]; at 1 h post dose) was “almost fully protected”. For the same molecule, the “Protection from MES induced seizures” value (MES induced seizures [6]; from 2 through 8 hours post dose) was “fully protected”, the AUClast/D [7, 14] was 6.26 ng·h/mL/mg/kg and the Cmax/D [7, 15] was 2.34 ng/mL/mg/kg. For the same molecule, the “Exposure of ezogabine (dose normalized AUC) compared with ezogabine itself” value [7] was “similar”, the “Reduction in behavioral response (flicks/licks) compared to vehicle” value [8] was 50% and the “Degradation / conversion to ezogabine in solution (summary)” value (“Degradation / conversion to ezogabine” below) [9] was “very little degradation to ezogabine”. The “Ezogabine Area” value ([9]; 0.1N HCl, room temp., normal light, 269 h) was 0 mAU, the “Ezogabine Area” value ([9]; 1N HCl, room temp., normal light, 269 h) was 0 mAU and the “Ezogabine Area” value ([9]; 2N HCl 37 C., 436 h) was 167 mAU. For the same molecule, the “Ezogabine Area” value ([9]; 2N HCl, room temp., normal light, 269 h) was 38 mAU, the “Appearance of the stability solution” value ([9]; 18 days) was “remained clear and colorless through Day 18” and the “Ezogabine Area” value ([9]; Methanol, room temp., normal light, 437 h) was 0 mAU. The “Ezogabine Area” value ([9]; PBS, room temp., normal light, 435 h) was 0 mAU.
For `CCOC(=O)Nc1ccc(NCc2ccc(F)cc2)cc1NC(=O)C[C@@H](CN)CC(C)C` [Compound 28], the AUClast/D [7, 14] was 83.0 ng·h/mL/mg/kg, the Cmax/D [7, 15] was 9.31 ng/mL/mg/kg and the “Exposure of ezogabine (dose normalized AUC) compared with ezogabine itself” value [7] was “lower exposure”. For the same molecule, the “Animals protected from MES induced seizures” value (MES induced seizures [10]; IP 12 mg/kg) was 1 of 9, the “Animals protected from MES induced seizures” value (MES induced seizures [10]; IP 24 mg/kg) was 3 of 9 and the “Protection against MES induced seizures, dose response” value (MES induced seizures [10]; IP 1.5, 3, 6, 12 and 24 mg/kg) was “None of the doses showed complete protection”. For the same molecule, the “Degradation / conversion to ezogabine” value [9] was “degradation to ezogabine with increasing strength of the acidic solution”, the “Ezogabine Area” value ([9]; 0.1N HCl, room temp., normal light, 440 h) was 0 mAU and the “Ezogabine Area” value ([9]; 1N HCl, room temp., normal light, 440 h) was 568 mAU. For the same molecule, the “Ezogabine Area” value ([9]; 2N HCl 37 C., 440 h) was 3593 mAU, the “Ezogabine Area” value ([9]; 2N HCl, room temp., normal light, 440 h) was 1462 mAU and the “Appearance of the stability solution” value ([9]; 11 days) was “clear and colorless through Day 11”. For the same molecule, the “% Remaining” value ([9]; 440 h) was 92.0%, the “Ezogabine Area” value ([9]; Acetonitrile, room temp., normal light, 440 h) was 248 mAU and the “Ezogabine Area” value ([9]; Methanol, room temp., normal light, 440 h) was 0 mAU. The “Concentration of the prodrug compared with ezogabine” value [11] was “present at higher concentrations than ezogabine”.
`CCNC(=O)CC[C@H](N)C(=O)Nc1cc(NCc2ccc(F)cc2)ccc1NC(=O)OCC.Cl` [Compound 29] showed an AUClast [7, 14] of 6110 ng·h/mL, a Cmax/D ([7]; male jugular vein cannulated rats, dose equimolar to Ezogabine 20 mg/kg, 0.5% methylcellulose in water, analyte Ezogabine) of 23.3 ng/mL/mg/kg and a Cmax [7, 15] of 883 ng/mL. The Cmax/D [7, 15] was 44.2 ng/mL/mg/kg, the Tmax [7, 15] was 9.6 min and the “Exposure of ezogabine (dose normalized AUC) compared with ezogabine itself” value [7] was “similar”. For the same molecule, the “Pharmacological response in MES over time” value (MES induced seizures [12]) was “reduced in tandem to the decrease in brain concentrations”, the Exposure of ezogabine [13] was “very high in plasma and was present in brain” and the “Degradation / conversion to ezogabine” value [9] was “degradation under acidic conditions and also conversion to ezogabine”. The “Ezogabine Area” value ([9]; 0.1N HCl, room temp., normal light, 441 h) was 0 mAU, the “Ezogabine Area” value ([9]; 1N HCl, room temp., normal light, 441 h) was 1241 mAU and the “Ezogabine Area” value ([9]; 2N HCl 37 C., 441 h) was 1755 mAU. The “Ezogabine Area” value ([9]; 2N HCl, room temp., normal light, 441 h) was 1659 mAU and the “Ezogabine Area” value ([9]; Methanol, room temp., normal light, 441 h) was 0 mAU.
